# Test results from ChEMBL document CHEMBL3108712, “Viniphenol A, a complex resveratrol hexamer from Vitis vinifera stalks: structural elucidation and protective effects against amyloid-β-induced toxicity in PC12 cells” (J Nat Prod, 2014).
# Test system: PC-12
# Experiment: Neuroprotective activity against amyloid beta (25 to 35)-induced toxicity in rat PC12 cells assessed as cell viability preincubated for 48 hrs with amyloid beta (25 to 35) followed by addition to cell culture measured after 24 hrs by MTT assay
# Type: functional, cell-based
compound,measurement,value
Oc1ccc([C@@H]2c3c(O)cc(O)cc3[C@H]3c4c(cc(O)cc4[C@@H]2[C@@H](c2ccc(O)cc2)[C@@H]2c4cc(O)cc5c4[C@H](c4cc(O)cc(O)c4[C@@H](c4ccc(O)cc4)[C@@H]2c2cc(O)cc4c2[C@H](c2cc(O)cc(O)c2)[C@@H](c2ccc(O)cc2)O4)[C@@H](c2ccc(O)cc2)O5)O[C@@H]3c2ccc(O)cc2)cc1,Activity,Dose-dependent effect
